Data published in US20250318532A1, “ASCAROSIDE COMBINATIONS” (Ascribe Bioscience Inc., priority 2022, published 2025).

Test system: Asian Soybean Rust (ASR)
Test: Soybean field trial in Brazil, ascaroside with Chlorothalonil and APROACH POWER
Type: in vivo
Settings: ascaroside alone, 250 mg/ac, foliar spray, relative to untreated controls

## CC1OC(O[C@H](C)CCCCCCCCC(=O)O)C(O)CC1O (stereo partly shown) [ascr #18]
  protection against Asian Soybean Rust: 20-40%
